Measured values from patent US12678387B2, “Composition for alleviating hair loss or promoting hair growth” (LG HOUSEHOLD & HEALTH CARE LTD., priority 2020, dated 2026).

Legend:
[1] = tested on: Human-derived dermal papilla cells (DPCs); assay: Enhancement of activity of dermal papilla cells (CCK-8 method); format: cell-based; details: for Activity of dermal papilla cells (%): 10 μg/mL, incubated for a day, percentage of the control group as 100; for Effect on activity and proliferation of dermal papilla cells (in words): summary of Table 3
Description: Human-derived dermal papilla cells (DPCs) were purchased from PromoCell. The DPCs were cultured in DMEM (Hyclone Inc., UT, USA) containing 5% fetal bovine serum (FBS; GIBCO, NY, USA), 100 units/mL penicillin and 100 μg/mL streptomycin under the condition of 37° C. and 5% CO2. The cultured DPCs were seeded onto a 96-well plate at 3,000 cells/well and then cultured for 24 hours under a 0.1% serum condition. […] After the incubation, the enhancement of cellular activity was evaluated by the CCK method. The cell culture was treated and incubated with CCK-8 at 1:10 for 1 hour. 1 hour later, the absorbance of each well was measured at 450 nm. All the experiments were 3 times and the absorbance was averaged. The result was expressed as percentage of the control group as 100.

[2] = tested on: Human-derived dermal papilla cells (DPCs); assay: Enhancement of mitochondrial activity of dermal papilla cells (JC-1 method); format: cell-based; details: for Mitochondrial activity of dermal papilla cells (%): 10 μg/mL, incubated for a day, percentage of the control group as 100; for Effect on mitochondrial activity of dermal papilla cells (in words): summary of Table 4
Description: Human-derived dermal papilla cells (DPCs) were purchased from PromoCell. The DPCs were cultured in DMEM (Hyclone Inc., UT, USA) containing 5% fetal bovine serum (FBS; GIBCO, NY, USA), 100 units/mL penicillin and 100 μg/mL streptomycin under the condition of 37° C. and 5% CO2. The cultured DPCs were seeded onto a 96-well plate at 3,000 cells/well and then cultured for 24 hours under a 0.1% serum condition. […] After the incubation, the degree of cell proliferation was evaluated by the JC-1 method. The cell culture was treated and incubated with JC-1 at 1:100 for 1 hour. 1 hour later, the fluorescence of each well was measured at 590 nm and 530 nm. All the experiments were 3 times and the fluorescence intensity was averaged. The result was expressed as percentage of the control group as 100.

Wnt/β-catenin signaling = assay: Wnt/β-catenin luciferase reporter assay in Wnt Reporter HEK293A cells; format: cell-based; details: for Wnt signaling activity for activating hair follicles (%): 10 μg/mL, untreated group 100%; for Wnt signaling activity (in words): summary of Table 5
From the text: In general, the Wnt/β-catenin signaling activated in the dermal papillae during transition from the […] to the anagen transition in the hair growth cycle begins as the hair starts to grow and occurs throughout the anagen phase. In the telogen and catagen phases, the Wnt/β-catenin signaling decreases or disappears, resulting in degeneration of hair follicles and shedding of hair. Therefore, it was investigated in the examples how much the momordin Ic, platycodin D2, polygalacin D or pseudoginsenoside RT5 of the present disclosure contributes to the amplification of Wnt/β-catenin signaling.
Wnt3a protein was used as a positive control group for amplifying Wnt/β-catenin signaling, and DMSO was used as a negative control group. After seeding Wnt Reporter HEK293A cells in a 96-well culture plate, with 3×10^4 cells per well, and then treating with the momordin Ic, platycodin D2, polygalacin D or pseudoginsenoside RT5 of the present disclosure as described in Table 5, reporter assay was conducted using a Promega's luciferase assay kit (E1960). The experiment was conducted according to the manufacturer's instructions and the activity of the Wnt/β-catenin promoter was measured using a luminometer (Victor; PerkinElmer, Waltham, Massachusetts, USA).

androgen receptor = assay: Androgenic activity: MMTV-Luc transcriptional activation assay in 22Rv1 cells with DHT; format: cell-based, human; details: 10 μg/mL together with 1 nM DHT, 24 hours
Description: The stable cell line was maintained by subculturing using RPMI1640 and 10% fetal bovine serum (GIBCO BRL, Gaithersburg, MD, USA). For transcriptional activation assay, the cells were seeded in a 96-well plate, with 25,000 cells per well, while replacing the medium with phenol red-free RPMI1640 containing 5% charcoal-stripped fetal bovine serum. […] The cell culture was treated and incubated with CCK-8 at 1:10 for 2 hours. 2 hour later, the absorbance of each well was measured at 450 nm. All the experiments were 3 times and the absorbance was averaged.

Row | Structure (SMILES) | Activity of dermal papilla cells (%) [1] [%] | Effect on activity and proliferation of dermal papilla cells (in words) [1] | Mitochondrial activity of dermal papilla cells (%) [2] [%] | Effect on mitochondrial activity of dermal papilla cells (in words) [2] | Wnt signaling activity for activating hair follicles (%) (Wnt/β-catenin signaling) | Wnt signaling activity (in words) (Wnt/β-catenin signaling) | Inhibition of androgenic activity (%) (androgen receptor)
1 | CC1(C)CC[C@]2(C(=O)O)CC[C@]3(C)C(=CC[C@@H]4[C@@]5(C)CC[C@H](O[C@@H]6O[C@H](C(=O)O)[C@@H](O)[C@H](O[C@@H]7OC[C@@H](O)[C@H](O)[C@H]7O)[C@H]6O)C(C)(C)[C@@H]5CC[C@]43C)[C@@H]2C1 [Momordin Ic, momordin Ic] | 148 | superior effect of enhancing the activity of dermal papilla cells | 120 | superior effect of enhancing the mitochondrial activity | 370 | superior Wnt signaling activity | 12
2 | CC(C)(O)[C@H]1CC[C@@](C)([C@H]2CC[C@]3(C)[C@@H]2[C@H](O)C[C@@H]2[C@@]4(C)CC[C@H](O)C(C)(C)[C@@H]4[C@@H](O[C@@H]4O[C@H](CO)[C@@H](O)[C@H](O)[C@H]4O)C[C@]23C)O1 [Pseudoginsenoside RT5, pseudoginsenoside RT5] | 141 | superior effect of enhancing the activity of dermal papilla cells | 112 | superior effect of enhancing the mitochondrial activity | 120 | superior Wnt signaling activity | 8
